Source: patent publication US10246425B2, “3,5-diamino-6-chloro-N-(N-(4-phenylbutyl)carbamimidoyl) pyrazine-2-carboxamide compounds” (Parion Sciences, Inc., priority 2012, dated 2019)
Structures can show the parent of a compound that is named as a salt.

Test system: human bronchial epithelial (HBE) cells
Assay: Airway surface liquid drug (ASL) clearance and metabolism by human airway epithelium
Type: in vitro ADME
Details: Table 4: HBE cells, 25 μL of 25 μM apical, 2 h, 37° C.; mean ± SD
Experimental: Assay 3. Airway Surface Liquid Drug (ASL) Clearance and Metabolism by Human Airway Epithelium
The disappearance of Compound II-d from the apical surface and airway epithelial metabolism were assessed in human bronchial epithelial (HBE) cells (Table 3). In these experiments 25 μL of a 25 μM solution of ENaC blocker was added to the apical surface of HBE cells grown at an air/liquid interface, and the drug concentration in the apical and basolateral compartment was measured over 2 h by UPLC.
Therefore, the compounds of Formula (A) have a longer half-life on mucosal surfaces compared to these know compounds as evidenced by the data shown in Table 4. The disappearance of Compound II-d from the apical surface and airway epithelial metabolism were assessed in HBE and compared to Comparative Example 1 (Table 4). In these experiments 25 μL of a 25 μM solution of ENaC blocker was added to the apical surface of HBE cells grown at an air/liquid interface, and the drug concentration in the apical and basolateral compartment was measured over 2 h by UPLC.

% of Initial Drug Mass on Apical Side (Parent and metabolite, 2 h) [%] | SMILES
76.6 ± 14.7 | CCCCCCN(CCCN[C@@H](Cc1ccc(CCCCNC(=N)NC(=O)c2nc(Cl)c(N)nc2N)cc1)C(N)=O)C[C@H](O)[C@@H](O)[C@H](O)[C@H](O)CO [XVII-d]
77.7 ± 12.2 | N=C(NCCCCc1ccc(C[C@H](NCCCN(C[C@H](O)[C@@H](O)[C@H](O)[C@H](O)CO)C[C@H](O)[C@@H](O)[C@H](O)[C@H](O)CO)C(N)=O)cc1)NC(=O)c1nc(Cl)c(N)nc1N [XVI-ee]

Same assay, conditions: Table 4: HBE cells, 25 μL of 25 μM apical, 2 h; mean ± SD

% of Apical Mass as Metabolites (2 h) | % of Initial Apical Mass on Basolateral Side (2 h) [%] | % on Basolateral Side as Metabolites (2 h) | SMILES
None | 1.9 ± 1.7 | None | CCCCCCN(CCCN[C@@H](Cc1ccc(CCCCNC(=N)NC(=O)c2nc(Cl)c(N)nc2N)cc1)C(N)=O)C[C@H](O)[C@@H](O)[C@H](O)[C@H](O)CO [XVII-d]
None | 4.2 ± 1.9 | None | N=C(NCCCCc1ccc2cc(CC[C@H](NCCCN(C[C@H](O)[C@@H](O)[C@H](O)[C@H](O)CO)C[C@H](O)[C@@H](O)[C@H](O)[C@H](O)CO)C(N)=O)ccc2c1)NC(=O)c1nc(Cl)c(N)nc1N [XIII-bb, 3,5-diamino-N—(N-(4-(6-((S)-4-amino-3-(3-(bis((2S,3R,4R,5R)-2,3,4,5,6-pentahydroxyhexyl)amino)propylamino)-4-oxobutyl)naphthalen-2-yl)butyl)carbamimidoyl)-6-chloropyrazine-2-carboxamide]
None | 1.2 ± 0.5 | None | CCCCCCN(CCCN[C@@H](CCc1ccc(CCCCNC(=N)NC(=O)c2nc(Cl)c(N)nc2N)c2ccccc12)C(N)=O)C[C@H](O)[C@@H](O)[C@H](O)[C@H](O)CO [VI-d, 3,5-diamino-N—(N-(4-(4-((S)-4-amino-3-(3-(hexyl((2S,3R,4R,5R)-2,3,4,5,6-pentahydroxyhexyl)amino)propylamino)-4-oxobutyl)naphthalen-1-yl)butyl)carbamimidoyl)-6-chloropyrazine-2-carboxamide hydrochloride]
None | 14.9 ± 1.4 | None | N=C(NCCCCc1ccc(C[C@H](NCCCN(C[C@H](O)[C@@H](O)[C@H](O)[C@H](O)CO)C[C@H](O)[C@@H](O)[C@H](O)[C@H](O)CO)C(N)=O)cc1)NC(=O)c1nc(Cl)c(N)nc1N [XVI-ee]
None | 1.8 ± 0.3 | None | N=C(NCCCCc1ccc(C[C@H](NCCCN(C[C@H](O)[C@@H](O)[C@H](O)[C@H](O)CO)C[C@H](O)[C@@H](O)[C@H](O)[C@H](O)CO)C(N)=O)c2c1CCCC2)NC(=O)c1nc(Cl)c(N)nc1N [XI-cc, 3,5-diamino-N—(N-(4-(4-((S)-3-amino-2-(3-(bis((2S,3R,4R,5R)-2,3,4,5,6-pentahydroxyhexyl)amino)propylamino)-3-oxopropyl)-5,6,7,8-tetrahydronaphthalen-1-yl)butyl)carbamimidoyl)-6-chloropyrazine-2-carboxamide]
none | 9.3 ± 0.86 | None | Cl.N=C(NCCCCc1ccc(CC[C@H](NCCCN(C[C@H](O)[C@@H](O)[C@H](O)[C@H](O)CO)C[C@H](O)[C@@H](O)[C@H](O)[C@H](O)CO)C(N)=O)c2ccccc12)NC(=O)c1nc(Cl)c(N)nc1N [V-d, 3,5-diamino-N—(N-(4-(4-((S)-4-amino-3-(3-(bis((2S,3R,4R,5R)-2,3,4,5,6-pentahydroxyhexyl)amino)propylamino)-4-oxobutyl)naphthalen-1-yl)butyl)carbamimidoyl)-6-chloropyrazine-2-carboxamide hydrochloride]
None | 9.6 ± 6.3 | None | CCCCCCN(CCCN[C@@H](Cc1ccc(CCCCNC(=N)NC(=O)c2nc(Cl)c(N)nc2N)c2c1CCCC2)C(N)=O)C[C@H](O)[C@@H](O)[C@H](O)[C@H](O)CO [XII-d, 3,5-diamino-N—(N-(4-(4-((S)-3-amino-2-(3-(hexyl((2S,3R,4R,5R)-2,3,4,5,6-pentahydroxyhexyl)amino)propylamino)-3-oxopropyl)-5,6,7,8-tetrahydronaphthalen-1-yl)butyl)carbamimidoyl)-6-chloropyrazine-2-carboxamide]
None | 1.1 ± 0.2 | None | CCCCCCN(CCCN[C@@H](Cc1ccc2cc(CCCCNC(=N)NC(=O)c3nc(Cl)c(N)nc3N)ccc2c1)C(N)=O)C[C@H](O)[C@@H](O)[C@H](O)[C@H](O)CO [IX-m, 3,5-diamino-N—(N-(4-(6-((S)-3-amino-2-(3-(hexyl((2S,3R,4R,5R)-2,3,4,5,6-pentahydroxyhexyl)amino)propylamino)-3-oxopropyl)naphthalen-2-yl)butyl)carbamimidoyl)-6-chloropyrazine-2-carboxamide]
None | 5.0 ± 3.3 | None | N=C(NCCCCc1ccc2cc(C[C@H](NCCCN(C[C@H](O)[C@@H](O)[C@H](O)[C@H](O)CO)C[C@H](O)[C@@H](O)[C@H](O)[C@H](O)CO)C(N)=O)ccc2c1)NC(=O)c1nc(Cl)c(N)nc1N [X-d, 3,5-diamino-N—(N-(4-(6-((S)-3-amino-2-(3-(bis((2S,3R,4R,5R)-2,3,4,5,6-pentahydroxyhexyl)amino)propylamino)-3-oxopropyl)naphthalen-2-yl)butyl)carbamimidoyl)-6-chloropyrazine-2-carboxamide]
none | 3.5 ± 2.2 | None | CCCCCCN(CCCN[C@@H](CCc1ccc(CCCCNC(=N)NC(=O)c2nc(Cl)c(N)nc2N)cc1)C(N)=O)C[C@H](O)[C@@H](O)[C@H](O)[C@H](O)CO [III-d, 3,5-diamino-N—(N-(4-(4-((S)-4-amino-3-(3-(hexyl((2S,3R,4R,5R)-2,3,4,5,6-pentahydroxyhexyl)amino)propylamino)-4-oxobutyl)phenyl)butyl)carbamimidoyl)-6-chloropyrazine-2-carboxamide]
None | 1.81 ± 1.6 | None | N=C(NCCCCc1ccc(CC[C@H](NCCCN(C[C@H](O)[C@@H](O)[C@H](O)[C@H](O)CO)C[C@H](O)[C@@H](O)[C@H](O)[C@H](O)CO)C(N)=O)c2c1CCCC2)NC(=O)c1nc(Cl)c(N)nc1N [XV-dd, 3,5-diamino-N—(N-(4-(4-((S)-4-amino-3-(3-(bis((2S,3R,4R,5R)-2,3,4,5,6-pentahydroxyhexyl)amino)propylamino)-4-oxobutyl)-5,6,7,8-tetrahydronaphthalen-1-yl)butyl)carbamimidoyl)-6-chloropyrazine-2-carboxamide]
None | 2.0 ± 0.8 | None | CCCCCCN(CCCN[C@@H](Cc1ccc(CCCCNC(=N)NC(=O)c2nc(Cl)c(N)nc2N)c2ccccc12)C(N)=O)C[C@H](O)[C@@H](O)[C@H](O)[C@H](O)CO [VIII-d, 3,5-diamino-N—(N-(4-(4-((S)-3-amino-2-(3-(hexyl((2S,3R,4R,5R)-2,3,4,5,6-pentahydroxyhexyl)amino)propylamino)-3-oxopropyl)naphthalen-1-yl)butyl)carbamimidoyl)-6-chloropyrazine-2-carboxamide]
None | 0.32 ± 0.6 | None | CCCCCCN(CCCN[C@@H](CCc1ccc2cc(CCCCNC(=N)NC(=O)c3nc(Cl)c(N)nc3N)ccc2c1)C(N)=O)C[C@H](O)[C@@H](O)[C@H](O)[C@H](O)CO [XIV-d, 3,5-diamino-N—(N-(4-(6-((S)-4-amino-3-(3-(hexyl((2S,3R,4R,5R)-2,3,4,5,6-pentahydroxyhexyl)amino)propylamino)-4-oxobutyl)naphthalen-2-yl)butyl)carbamimidoyl)-6-chloropyrazine-2-carboxamide]
None | 6.4 ± 2.1 | None | N=C(NCCCCc1ccc(C[C@H](NCCCN(C[C@H](O)[C@@H](O)[C@H](O)[C@H](O)CO)C[C@H](O)[C@@H](O)[C@H](O)[C@H](O)CO)C(N)=O)c2ccccc12)NC(=O)c1nc(Cl)c(N)nc1N [VII-ee, 3,5-diamino-N—(N-(4-(4-((S)-3-amino-2-(3-(bis((2S,3R,4R,5R)-2,3,4,5,6-pentahydroxyhexyl)amino)propylamino)-3-oxopropyl)naphthalen-1-yl)butyl)carbamimidoyl)-6-chloropyrazine-2-carboxamide]
